This is an account of results in patent US11180474B2 (BRISTOL-MYERS SQUIBB COMPANY, priority 2016, dated 2021).

Each structure is given as a SMILES string. pIC50: −log10 of the molar value. Counter-ions that a name gives are not always drawn.

Assay [1] addresses T1, human TLR8 (Homo sapiens, UniProt Q9NR97).
T1 construct: host or cells: HEK-Blue cells
T1 sequence (Q9NR97 27-1041): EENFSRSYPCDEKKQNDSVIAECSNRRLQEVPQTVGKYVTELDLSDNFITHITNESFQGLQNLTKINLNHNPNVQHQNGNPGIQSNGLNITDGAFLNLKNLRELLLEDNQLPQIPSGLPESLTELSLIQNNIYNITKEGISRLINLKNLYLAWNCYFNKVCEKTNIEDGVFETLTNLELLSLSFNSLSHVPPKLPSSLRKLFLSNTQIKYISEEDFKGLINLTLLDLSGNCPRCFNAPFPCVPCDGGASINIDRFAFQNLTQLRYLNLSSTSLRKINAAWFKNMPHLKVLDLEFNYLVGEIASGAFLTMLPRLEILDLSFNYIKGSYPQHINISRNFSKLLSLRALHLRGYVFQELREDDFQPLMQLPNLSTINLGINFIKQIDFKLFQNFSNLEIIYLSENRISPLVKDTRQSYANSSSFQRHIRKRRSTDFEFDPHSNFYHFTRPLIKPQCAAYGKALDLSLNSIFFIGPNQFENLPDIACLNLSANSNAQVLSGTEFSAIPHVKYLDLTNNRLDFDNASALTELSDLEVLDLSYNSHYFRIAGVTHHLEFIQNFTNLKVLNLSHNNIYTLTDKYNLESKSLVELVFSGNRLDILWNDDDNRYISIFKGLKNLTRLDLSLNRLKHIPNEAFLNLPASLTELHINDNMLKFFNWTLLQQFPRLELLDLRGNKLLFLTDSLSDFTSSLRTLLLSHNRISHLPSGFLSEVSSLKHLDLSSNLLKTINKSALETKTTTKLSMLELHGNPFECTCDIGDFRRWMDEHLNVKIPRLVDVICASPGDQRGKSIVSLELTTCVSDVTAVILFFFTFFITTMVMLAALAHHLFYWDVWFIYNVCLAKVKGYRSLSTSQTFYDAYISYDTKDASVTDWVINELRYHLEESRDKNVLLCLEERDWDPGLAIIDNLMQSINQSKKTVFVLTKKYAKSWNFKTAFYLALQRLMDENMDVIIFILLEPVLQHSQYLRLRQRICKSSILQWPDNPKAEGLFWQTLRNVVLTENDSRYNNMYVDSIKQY
Put plainly: TLR8 inhibition reporter assay (HEK-Blue cells, SEAP reporter, R848 stimulation). It counts as cell-based. The following applies: HEK-Blue cells overexpressing human TLR8, R848 15.9 μM. Summed up:
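22 h, 37° C, 5% CO2 incubation; compounds 0.05 nM-50 μM final; TLR7 cells 15000/well, TLR8 20,000/well. Readout: SEAP via HEK-Blue Detection medium. % inhibition = signal reduction versus agonist + DMSO wells, referenced to known inhibitor.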
On the technique in general: A reporter such as luciferase makes a cellular process visible.

The target of assay [2] is T2, human TLR9 (Homo sapiens, UniProt Q9NR96).
T2 construct: host or cells: HEK-Blue cells
T2 sequence (Q9NR96 26-1032): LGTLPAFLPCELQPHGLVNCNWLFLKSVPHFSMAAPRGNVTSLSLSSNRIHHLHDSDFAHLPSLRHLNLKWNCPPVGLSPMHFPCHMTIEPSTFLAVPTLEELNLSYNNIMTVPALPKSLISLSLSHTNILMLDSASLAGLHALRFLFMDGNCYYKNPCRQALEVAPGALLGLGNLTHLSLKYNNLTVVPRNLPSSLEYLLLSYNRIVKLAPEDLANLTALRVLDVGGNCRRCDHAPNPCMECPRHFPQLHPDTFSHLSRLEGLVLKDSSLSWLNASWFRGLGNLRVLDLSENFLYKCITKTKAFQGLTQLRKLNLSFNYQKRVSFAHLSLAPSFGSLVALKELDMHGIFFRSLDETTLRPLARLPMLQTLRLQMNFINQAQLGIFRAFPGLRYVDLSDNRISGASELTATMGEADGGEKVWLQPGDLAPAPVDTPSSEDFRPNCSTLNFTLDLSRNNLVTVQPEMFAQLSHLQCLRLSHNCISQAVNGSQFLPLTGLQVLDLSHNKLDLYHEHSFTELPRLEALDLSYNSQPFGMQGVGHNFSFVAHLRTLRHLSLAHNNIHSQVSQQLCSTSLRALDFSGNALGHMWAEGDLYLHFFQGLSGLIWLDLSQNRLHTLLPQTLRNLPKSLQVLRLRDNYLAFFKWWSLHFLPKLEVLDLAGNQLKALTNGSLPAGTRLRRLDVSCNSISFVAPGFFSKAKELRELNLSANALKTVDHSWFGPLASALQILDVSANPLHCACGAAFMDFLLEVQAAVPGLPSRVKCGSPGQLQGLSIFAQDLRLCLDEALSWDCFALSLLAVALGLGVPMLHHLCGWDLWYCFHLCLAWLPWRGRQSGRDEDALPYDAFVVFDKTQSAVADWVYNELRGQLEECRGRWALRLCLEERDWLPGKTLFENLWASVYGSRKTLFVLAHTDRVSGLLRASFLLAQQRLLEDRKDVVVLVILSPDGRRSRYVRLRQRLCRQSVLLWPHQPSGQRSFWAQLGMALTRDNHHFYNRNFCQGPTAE
Put plainly: TLR9 inhibition reporter assay (HEK-Blue cells, SEAP reporter, ODN2006 stimulation). It counts as cell-based. The conditions noted are these: HEK-Blue cells overexpressing human TLR9, ODN2006 5 nM. The essentials:
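Compound treatment: 30 min, RT, 0.05 nM–50 μM final. Agonist: TLR7 gardiquimod 7.5 μM; TLR8 R848 15.9 μM; TLR9 ODN2006 5 nM. Incubation 22 h, 37 °C, 5% CO2. Readout SEAP, HEK-Blue Detection.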

As for `CCc1c(-c2ccc(OC)c(OC)c2)[nH]c2ccc(C3CCN(C(C)=O)CC3)cc12` [Example 185, 1-(4-(2-(3,4-dimethoxyphenyl)-3-ethyl-1H-indol-5-yl)piperidin-1-yl)ethan-1-one], the figures for the pIC50 in assay [1] and in assay [2] were 6.08 and 4.49, respectively.

As to `CCc1c(-c2ccc(OC)c(OC)c2)[nH]c2ccc(C3CCN(C(=O)C4CCNCC4)CC3)cc12` [Example 186, (4-(2-(3,4-dimethoxyphenyl)-3-ethyl-1H-indol-5-yl)piperidin-1-yl)(piperidin-4-yl) methanone], the pIC50 – broadly, the negative decadic logarithm of the IC50, by convention in mol/L – in assay [1] is 6.88; in assay [2], 6.00.

For the molecule `CCc1c(-c2ccc(OC)c(OC)c2)[nH]c2ccc(C3CCN(C(=O)C4(C)CCNCC4)CC3)cc12` [Example 187, (4-(2-(3,4-dimethoxyphenyl)-3-ethyl-1H-indol-5-yl)piperidin-1-yl)(4-methylpiperidin-4-yl)methanone], the values for the pIC50 in assay [1] and in assay [2] were 6.79 and 5.89, respectively.

Turning to `CCc1c(-c2ccc(OC)c(OC)c2)[nH]c2cc(C)c(C3CCN(CCNC)CC3)cc12` [Example 188, 2-(4-(2-(3,4-dimethoxyphenyl)-3-ethyl-6-methyl-1H-indol-5-yl)piperidin-1-yl)-N-methylethanamine-di-trifluoroacetic acid], the pIC50 in assay [1] is 6.67; in assay [2], 6.21.

Take `CCc1c(-c2ccc(OC)c(OC)c2)[nH]c2c(F)cc(C3CCNCC3)cc12` [Example 189, 2-(3,4-dimethoxyphenyl)-3-ethyl-7-fluoro-5-(piperidin-4-yl)-1H-indole]: the pIC50 was 6.21 in assay [1] and 5.94 in assay [2].

Turning to `CCc1c(-c2ccc(OC)c(OC)c2)[nH]c2c(F)cc(C3CCN(C4CCN(CC(C)C)CC4)CC3)cc12` [Example 190, 2-(3,4-dimethoxyphenyl)-3-ethyl-7-fluoro-5-(1′-isobutyl-[1,4′-bipiperidin]-4-yl)-1H-indole], the pIC50 in assay [1] is 5.75; in assay [2], 6.55.

As for `CCc1c(-c2ccc(OC)c(OC)c2)[nH]c2c(F)cc(C3CCN(CCNC)CC3)cc12` [Example 191, 2-(4-(2-(3,4-dimethoxyphenyl)-3-ethyl-7-fluoro-1H-indol-5-yl)piperidin-1-yl)-N-methylethan-1-amine], the pIC50 in assay [1] is 6.96; in assay [2], 5.91.

Turning to `CCc1c(-c2ccc(OC)c(OC)c2)[nH]c2cc(OC)c(C3CCN(C4CCN(C(C)C)CC4)CC3)cc12` [Example 192, 2-(3,4-dimethoxyphenyl)-3-ethyl-5-(1′-isopropyl-[1,4′-bipiperidin]-4-yl)-6-methoxy-1H-indole], the pIC50 in assay [1] is 6.71; in assay [2], 6.59.

Regarding `COc1ccc(-c2[nH]c3ccc(C4CCNCC4)cc3c2C(C)C)cc1OC` [Example 194, 2-(3,4-dimethoxyphenyl)-3-isopropyl-5-(piperidin-4-yl)-1H-indole hydrochloride], the pIC50 was 7.27 in assay [1] and 5.30 in assay [2].

Take `COc1ccc(-c2[nH]c3ccc(C4CCN(C5CCNCC5)CC4)cc3c2C(C)C)cc1OC` [Example 197, 5-([1,4′-bipiperidin]-4-yl)-2-(3,4-dimethoxyphenyl)-3-isopropyl-1H-indole dihydrochloride]: the pIC50 is 7.60 in assay [1] and 6.19 in assay [2].

For the molecule `COc1ccc(-c2[nH]c3ccc(C4CCN(C5CCN(CC6CC6)CC5)CC4)cc3c2C(C)C)cc1OC` [Example 198, 5-(1′-(cyclopropylmethyl)-[1,4′-bipiperidin]-4-yl)-2-(3,4-dimethoxyphenyl)-3-isopropyl-1H-indole di trifluoroacetic acid], the results for the pIC50 in assay [1] and in assay [2] were 7.66 and 6.31, respectively.

Consider `COc1ccc(-c2[nH]c3ccc(C4CCN(C5CCN(CC(C)C)CC5)CC4)cc3c2C(C)C)cc1OC` [Example 199, 2-(3,4-dimethoxyphenyl)-5-(1′-isobutyl-[1,4′-bipiperidin]-4-yl)-3-isopropyl-1H-indole], for which the results for the pIC50 in assay [1] and in assay [2] were 7.72 and 6.59, respectively.

On to `COc1ccc(-c2[nH]c3ccc(C4CCN(C5CCN(C)CC5)CC4)cc3c2C(C)C)cc1OC` [Example 200, 2-(3,4-dimethoxyphenyl)-3-isopropyl-5-(1′-methyl-[1,4′-bipiperidin]-4-yl)-1H-indole], for which the pIC50 was 7.57 in assay [1] and 5.90 in assay [2].

Consider `COc1ccc(-c2[nH]c3ccc(C4CCN(C5CCN(C(C)C)CC5)CC4)cc3c2C(C)C)cc1OC` [Example 201, 2-(3,4-dimethoxyphenyl)-3-isopropyl-5-(1′-isopropyl-[1,4′-bipiperidin]-4-yl)-1H-indole], for which the pIC50 in assay [1] was 7.77; in assay [2], 6.19.

Turning to `COc1ccc(-c2[nH]c3ccc(C4CCN(C5CCN(C6CCCC6)CC5)CC4)cc3c2C(C)C)cc1OC` [Example 202, 5-(1′-cyclopentyl-[1,4′-bipiperidin]-4-yl)-2-(3,4-dimethoxyphenyl)-3-isopropyl-1H-indole], the negative logarithm of the IC50 (pIC50) in assay [1] is 7.89; in assay [2], 6.47.

On to `CCN(CC)C(=O)CN(C)CC(=O)N1CCC(c2ccc3[nH]c(-c4ccc(OC)c(OC)c4)c(C(C)C)c3c2)CC1` [Example 203, 2-((2-(4-(2-(3,4-dimethoxyphenyl)-3-isopropyl-1H-indol-5-yl)piperidin-1-yl)-2-oxoethyl)(methyl)amino)-N,N-diethylacetamide, TFA], for which the pIC50 was 6.54 in assay [1] and 5.18 in assay [2].

Turning to `CCN(CC)C(=O)CCN(C)CC(=O)N1CCC(c2ccc3[nH]c(-c4ccc(OC)c(OC)c4)c(C(C)C)c3c2)CC1` [Example 204, 3-((2-(4-(2-(3,4-dimethoxyphenyl)-3-isopropyl-1H-indol-5-yl)piperidin-1-yl)-2-oxoethyl)(methyl)amino)-N,N-diethylpropanamide], the pIC50 in assay [1] is 6.95; in assay [2], 5.70.

For the molecule `COc1ccc(-c2[nH]c3cc(C)c(C4CCNCC4)cc3c2C(C)C)cc1OC` [Example 205, 2-(3,4-dimethoxyphenyl)-3-isopropyl-6-methyl-5-(piperidin-4-yl)-1H-indole], the values for the pIC50 in assay [1] and in assay [2] were 5.16 and 6.02, respectively.

As for `COc1ccc(-c2[nH]c3cc(C)c(C4CCN(C5CCN(C(C)C)CC5)CC4)cc3c2C(C)C)cc1OC` [Example 206, 2-(3,4-dimethoxyphenyl)-3-isopropyl-5-(1′-isopropyl-[1,4′-bipiperidin]-4-yl)-6-methyl-1H-indole di trifluoroacetic acid], the pIC50 in assay [1] is 4.84; in assay [2] it was 6.00.
